From PubChem BioAssay AID330 (DTP/NCI, 2004)
Several values for one entry are separate records, joined by “and”; a condition that tells them apart may be missing. Equal entries are not always repeated. Inconclusive results and toxic doses are left out. The calls were made as follows: active = survival T/C of 150% or more; inactive = T/C below 125% in these data.

Test system: P388 leukemia ip, CD2F1 mice, survival T/C
Experiment: NCI In Vivo Anticancer Drug Screen. Data for tumor model P388 Leukemia (intraperitoneal) in CD2F1 (CDF1) mice
Settings: endpoint: median survival time, higher = longer survival
In short: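 Mice carrying the transplanted tumor received test compound or vehicle. Survival was recorded in each group, and the value is the treated-group measurement divided by that of the vehicle-treated control group.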

[1] = dose: 12.5 mg/kg/injection, schedule: Q01DX009 (ip), vehicle: saline with Tween-80
[2] = dose: 100.0 mg/kg/injection, schedule: Q01DX009 (ip), vehicle: saline with Tween-80
[3] = dose: 200.0 mg/kg/injection, schedule: Q01DX009 (ip), vehicle: saline with Tween-80
[4] = dose: 50.0 mg/kg/injection, schedule: Q01DX005 (ip), vehicle: Klucel (hydroxypropylcellulose) (HPC)
[5] = dose: 100.0 mg/kg/injection, schedule: Q01DX005 (ip), vehicle: Klucel (hydroxypropylcellulose) (HPC)
[6] = dose: 200.0 mg/kg/injection, schedule: Q01DX005 (ip), vehicle: Klucel (hydroxypropylcellulose) (HPC)

Measured: T/C

O=C1CN2C(=O)C1(c1ccccc1)C(=O)NC2=S (stereo not given)
inactive: dose: 100.0 mg/kg/injection, schedule: Q04DX002 (ip), vehicle: Klucel (hydroxypropylcellulose) (HPC) 105 % of control | dose: 200.0 mg/kg/injection, schedule: Q04DX002 (ip), vehicle: Klucel (hydroxypropylcellulose) (HPC) 106 % of control | dose: 400.0 mg/kg/injection, schedule: Q04DX002 (ip), vehicle: Klucel (hydroxypropylcellulose) (HPC) 106 % of control

OC1(c2ccccc2)CSC2=Nc3ccccc3C3CCN1N23 (stereo not given)
inactive: [1] 108 % of control and 87 % of control | [2] 122 % of control and 95 % of control | [3] 99 % of control

O=S1(=O)c2ccccc2C(N2CCCCC2)C1CCCCC1C(N2CCCCC2)c2ccccc2S1(=O)=O (stereo not given)
inactive: dose: 100.0 mg/kg/injection, schedule: Q04DX002 (ip), vehicle: saline with Tween-80 100 % of control | dose: 200.0 mg/kg/injection, schedule: Q04DX002 (ip), vehicle: saline with Tween-80 98 % of control | dose: 400.0 mg/kg/injection, schedule: Q04DX002 (ip), vehicle: saline with Tween-80 99 % of control

CC(C)OCCCNCC(=O)Nc1ccc(S(=O)(=O)c2ccc(NC(=O)CNCCCOC(C)C)cc2)cc1
inactive: [4] 95 % of control | [5] 100 % of control | [6] 100 % of control

C=C(CSc1ccc(C(=O)O)c([N+](=O)[O-])c1)c1ccc([N+](=O)[O-])cc1
inactive: dose: 12.5 mg/kg/injection, schedule: Q01DX009 (ip), vehicle: saline 105 % of control | dose: 25.0 mg/kg/injection, schedule: Q01DX009 (ip), vehicle: saline 106 % of control | dose: 50.0 mg/kg/injection, schedule: Q01DX009 (ip), vehicle: saline 99 % of control and 90 % of control

CNC(=O)OCc1c(COC(=O)NC)c(-c2ccc(SC)cc2)n(C)c1C
active: dose: 3.13 mg/kg/injection, schedule: Q01DX009 (ip), vehicle: distilled water + Tween-80 187 % of control | dose: 12.5 mg/kg/injection, schedule: Q01DX009 (ip), vehicle: distilled water + Tween-80 152 % of control | dose: 50.0 mg/kg/injection, schedule: Q01DX009 (ip), vehicle: distilled water + Tween-80 150 % of control

O=[N+]([O-])C1(Br)COC(c2cccc(O)c2)OC1 (stereo not given)
inactive: dose: 3.12 mg/kg/injection, schedule: Q01DX009 (ip), vehicle: saline with Tween-80 99 % of control | dose: 6.25 mg/kg/injection, schedule: Q01DX009 (ip), vehicle: saline with Tween-80 97 % of control | [1] 111 % of control and 94 % of control

CSc1nnc(CCC(=O)Nc2cc(Cl)c(Cl)cc2Cl)o1
inactive: dose: 60.0 mg/kg/injection, schedule: Q01DX005 (ip), vehicle: saline with Tween-80 106 % of control | dose: 120.0 mg/kg/injection, schedule: Q01DX005 (ip), vehicle: saline with Tween-80 105 % of control | dose: 240.0 mg/kg/injection, schedule: Q01DX005 (ip), vehicle: saline with Tween-80 98 % of control

CCOC(=O)c1c(C)csc1NC(C)=O
inactive: [2] 120 % of control | [3] 115 % of control | dose: 400.0 mg/kg/injection, schedule: Q01DX009 (ip), vehicle: saline with Tween-80 115 % of control

COC(=O)NC1=Nc2ccccc2N(C(=O)C(C)C)S1
inactive: [4] 100 % of control | [5] 101 % of control | [6] 97 % of control

O=c1oc2ccccc2cc1Cc1cc2ccccc2oc1=O
inactive: dose: 50.0 mg/kg/injection, schedule: Q01DX009 (ip), vehicle: Klucel (hydroxypropylcellulose) (HPC) 103 % of control | dose: 100.0 mg/kg/injection, schedule: Q01DX009 (ip), vehicle: Klucel (hydroxypropylcellulose) (HPC) 97 % of control

Cc1ccc(S(=O)(=O)N/N=C/c2ccc(O)c(O)c2)cc1
inactive: dose: 12.5 mg/kg/injection, schedule: Q01DX009 (ip), vehicle: other 112 % of control | dose: 25.0 mg/kg/injection, schedule: Q01DX009 (ip), vehicle: other 112 % of control | dose: 50.0 mg/kg/injection, schedule: Q01DX009 (ip), vehicle: other 112 % of control | dose: 100.0 mg/kg/injection, schedule: Q01DX009 (ip), vehicle: other 111 % of control and 120 % of control | dose: 200.0 mg/kg/injection, schedule: Q01DX009 (ip), vehicle: other 112 % of control and 121 % of control | dose: 400.0 mg/kg/injection, schedule: Q01DX009 (ip), vehicle: other 122 % of control

C/C(=N\NC(=S)N(C)C)c1ncc[nH]1
inactive: dose: 50.0 mg/kg/injection, schedule: Q01DX005 (ip), vehicle: saline with Tween-80 121 % of control | dose: 100.0 mg/kg/injection, schedule: Q01DX005 (ip), vehicle: saline with Tween-80 119 % of control

Cc1oc(-c2ccc(F)cc2)nc1C(N)=O
inactive: dose: 100.0 mg/kg/injection, schedule: Q01DX001 (ip), vehicle: Klucel (hydroxypropylcellulose) (HPC) 97 % of control | dose: 200.0 mg/kg/injection, schedule: Q01DX001 (ip), vehicle: Klucel (hydroxypropylcellulose) (HPC) 94 % of control | dose: 400.0 mg/kg/injection, schedule: Q01DX001 (ip), vehicle: Klucel (hydroxypropylcellulose) (HPC) 101 % of control

Cc1ccc(S(=O)(=O)N2CCCN(S(=O)(=O)c3ccc(C)cc3)CCSCCCSCC2)cc1
inactive: dose: 25.0 mg/kg/injection, schedule: Q01DX009 (ip), vehicle: saline with Tween-80 98 % of control | dose: 50.0 mg/kg/injection, schedule: Q01DX009 (ip), vehicle: saline with Tween-80 87 % of control
